One data set has as its target T1, human SGLT2 (Homo sapiens, UniProt P31639).
T1 construct: host or cells: Xenopus oocytes (heterologous expression after injection)
T1 sequence (P31639 1-672): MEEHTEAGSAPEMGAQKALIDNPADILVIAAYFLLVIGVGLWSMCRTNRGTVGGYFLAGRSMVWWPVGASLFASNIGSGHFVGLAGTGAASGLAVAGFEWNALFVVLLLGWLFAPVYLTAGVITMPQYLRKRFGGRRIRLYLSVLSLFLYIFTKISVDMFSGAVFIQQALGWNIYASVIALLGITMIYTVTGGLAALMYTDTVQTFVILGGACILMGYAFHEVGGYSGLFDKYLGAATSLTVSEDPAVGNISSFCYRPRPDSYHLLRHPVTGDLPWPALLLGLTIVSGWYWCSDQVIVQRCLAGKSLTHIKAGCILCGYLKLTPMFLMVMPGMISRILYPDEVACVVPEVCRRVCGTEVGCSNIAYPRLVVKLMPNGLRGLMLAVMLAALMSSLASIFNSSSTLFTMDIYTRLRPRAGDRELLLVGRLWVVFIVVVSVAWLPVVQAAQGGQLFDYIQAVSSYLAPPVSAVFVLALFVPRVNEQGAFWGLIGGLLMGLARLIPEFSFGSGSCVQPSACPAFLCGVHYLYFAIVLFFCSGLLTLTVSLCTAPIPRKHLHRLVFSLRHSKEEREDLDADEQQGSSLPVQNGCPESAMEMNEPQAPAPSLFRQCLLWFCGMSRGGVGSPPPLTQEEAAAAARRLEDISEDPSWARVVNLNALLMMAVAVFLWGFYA
The following applies: cited from earlier work.

In data set [1] the test system is mouse SGLT2 mRNA. The data set is described as follows: Mouse SGLT2 mRNA levels in kidney, additional 1-10-1 and 2-8-2 MOE gapmers, Balb/c mice (Example 15, Table 68). Format: in vivo.
Data set [2] relates to mouse SGLT2 mRNA. Briefly: Mouse SGLT2 mRNA levels in kidney, MOE versus Methyleneoxy BNA gapmers, Balb/c mice (Example 15, Table 69). Format: in vivo. How it is done:
The effect of ISIS 379692 1-10-1 MOE gapmer and ISIS 388625 2-8-2 MOE gapmer are compared with the effect of ISIS 392170 1-10-1 Methyleneoxy BNA Gapmer and ISIS 392173 2-8-2 Methyleneoxy BNA Gapmer (see Table 69) on mouse SGLT2 mRNA levels in vivo. Data are taken from three experiments in which male 6-week old Balb/c mice were dosed twice per week for three weeks with 5, 25 and 125 nmol/kg of either the ISIS 379692 1-10-1 MOE gapmer or the ISIS 388625 2-8-2 MOE gapmer given by intraperitoneal injection. Mice were sacrificed 48 hours following last administration and evaluated for SGLT2 mRNA levels in kidney. Target levels were determined by RT, real-time PCR as described by other examples herein. PCR results were normalized to an internal ISIS control. The data are expressed as percent change (“+” indicates an increase, “−” indicates a decrease) relative to saline treated animals and are illustrated in Table 69.

The subject of a further data set is rat SGLT2 mRNA. The data set is described as follows: Rat SGLT2 mRNA levels in kidney, ISIS 379692 and ISIS 388625, Sprague-Dawley rats (Example 15, Table 70). Format: in vivo. The following applies: i.p. twice per week for three weeks. Here is the method:
The effect of ISIS 379692 1-10-1 MOE gapmer and ISIS 388625 MOE 2-8-2 gapmer (see Table 70) on rat SGLT2 mRNA levels in vivo. […] Rats were sacrificed 48 hours following last administration and evaluated for SGLT2 levels in kidney. Target levels were determined by RT, real-time PCR as described by other examples herein. PCR results were normalized to an internal ISIS control.

Data set [3] can be described thus: Plasma glucose in ZDF rats, once a week for twelve weeks (Example 16, Table 71). Format: in vivo, rat. The conditions noted are these: compared to PBS and control treated animals. Here is the method: (§1) ISIS 388625, 388626 and control oligo ISIS 388628 were analyzed for their effect on ZDF rat plasma glucose levels and HbA1c. The leptin receptor deficient Zucker diabetic fatty (ZDF) rat is a useful model for the investigation of type 2 diabetes. Diabetes develops spontaneously in these male rats at ages 8-10 weeks, and is associated with hyperphagia, polyuria, polydipsia, and impaired weight gain, symptoms which parallel the clinical symptoms of diabetes (Phillips M S, et al., 1996, Nat Genet. 13, 18-19). Six week old ZDF rats were injected intraperitoneally with short antisense compound at a dose of 400 nM/kg once a week for twelve weeks. Data are illustrated in Tables 71 and 72.

Data set [4] can be described thus: HbA1c status in ZDF rats (Example 16, Table 72). Format: in vivo, rat. The conditions noted are these: compared to PBS and control treated animals. How it is done: as §1
Another data set deals with dog SGLT2 mRNA. The data set is described as follows: Dog SGLT2 mRNA levels in kidney, beagle dogs, subcutaneous (Example 17, Table 73). Format: in vivo. The following applies: for % change in SGLT2 expression relative to saline: subcutaneous twice weekly, day 46. Here is the method: ISIS 388625 is a 2-8-2 MOE Gapmer with sequence […] (SEQ ID NO: 246) (e.g. see Table 71). The effect of ISIS 388625 on dog SGLT2 mRNA levels. Data are taken from two dosing groups in which a total of nine male beagle dogs were dosed with either one or ten mg/kg/week of ISIS or saline given by subcutaneous injection twice weekly. On day 46 of the study all dogs were sacrificed and evaluated for SGLT2 levels in kidney. Target levels were determined by quantitative RT, real-time PCR as described by other examples herein. PCR results were normalized to an internal ISIS control.

Data set [5] can be described thus: Standard glucose tolerance test and urinary glucose excretion in dog (Example 17). Format: in vivo. An excerpt: Even greater reduction can be achieved at slightly higher doses. […] Peak plasma glucose levels were decreased by over 50% on average and the subsequent drop in glucose was lessened compared to saline controls in a standard glucose tolerance test.
Another data set concerns ApoB mRNA. The data set is described as follows: ApoB mRNA in liver of Balb/c mice, palmitic acid conjugates, single i.p. dose, with ED50 (Example 30, Table 95). Format: in vivo, mouse. The conditions noted are these: single i.p. injection. How it is done:
(§2) 0.4, and 0.16 umol/kg. Each dose group consisted of four animals. A 5-10-5 MOE gapmer was used for a control treatment. Mice were sacrificed approximately 48 hours following the final dose. Liver tissue was collected for RNA isolation, and blood was collected for serum chemistry analyses. ApoB mRNA levels were measured by real-time PCR as described herein. ApoB mRNA levels were normalized to RNA levels as determined by RIBOGREEN, and are presented in Table 95 as percent inhibition relative to ApoB mRNA levels in saline-treated control animals.
(§3) At the 2.5 umol/kg dose, ApoB inhibition by the short antisense compounds was greater than observed with a 5-10-5 MOE gapmer at an equivalent dose. […] Triglycerides were reduced at the 2.5 and […] doses of ISIS 387462 and ISIS 391872.

A short description of data set [6]: Triglycerides, total cholesterol, HDL-C, LDL-C and adverse effects (Example 30). Format: in vivo, mouse. Here is the method: as §2, §3

Strand notation (5' to 3'): a small letter for the sugar, then the base; units joined by * are phosphorothioate-linked, units joined directly phosphodiester-linked; [ ] holds rarer units or linkages, { } end groups; capitals alone tell only the bases. [PALM-N] = nucleoside bearing a 2'-(butylacetamido)-palmitamide (C16 palmitic acid) substituent (N: the base); e = 2'-O-(2-methoxyethyl) (MOE); l = locked nucleic acid (LNA); [5mC] = 5-methylcytosine; d = 2'-deoxy (DNA)

As to `O=C(CCc1ccc(O)cc1)c1c(O)cc(O)cc1O[C@@H]1O[C@H](CO)[C@@H](O)[C@H](O)[C@H]1O` [phlorizin], at human SGLT2 (You et al., 1995), the transport activity result is given as “suppressed”.
Regarding `CO[C@H]1O[C@H](CO)[C@@H](O)[C@H](O)[C@H]1O` [α-MeG1c, α-methyl-D-glucopyranoside], the Km (commonly the concentration of substrate that gives half-maximal velocity) at human SGLT2 (sodium-dependent transport (Kanai et al., 1994; You et al., 1995)) was 1.6 mM.
As for “ISIS 388625: SGLT2; TGTTCCAGCCCA 2-8-2 MOE Gapmer (antisense eT*eG*dT*dT*d[5mC]*d[5mC]*dA*dG*d[5mC]*d[5mC]*e[5mC]*eA)”, the “% change in SGLT2 expression relative to saline” value with mouse SGLT2 mRNA [1] (0.02 umol/kg i.p. twice per week for three weeks) is listed as −65%; in the data set with mouse SGLT2 mRNA [1] (0.1 umol/kg i.p. twice per week for three weeks), −88%; in the data set with mouse SGLT2 mRNA [1] (0.5 umol/kg i.p. twice per week for three weeks), −90%; in the data set with rat SGLT2 mRNA (dose 3.125 umol/kg (head)), “+25%”; in the data set on rat SGLT2 mRNA (dose 12.5 umol/kg (head)), −15%; in the data set on rat SGLT2 mRNA (dose 50 umol/kg (head)), −65%. The entries for the “% change in SGLT2 expression relative to saline” value in the data set on rat SGLT2 mRNA (dose 200 umol/kg (head)), in the data set on dog SGLT2 mRNA (1 mg/kg/wk) and in the data set with dog SGLT2 mRNA (10 mg/kg/wk) were −80%, −85% and −95%, respectively. The results for the “SGLT2 mRNA, percent change relative to saline treated animals” value in the data set on mouse SGLT2 mRNA [2] (5 nmol/kg i.p. twice per week for three weeks), in the data set on mouse SGLT2 mRNA [2] (25 nmol/kg i.p. twice per week for three weeks) and in the data set on mouse SGLT2 mRNA [2] (125 nmol/kg i.p. twice per week for three weeks) were −18 percent change, −47 percent change and −70 percent change, respectively. The Plasma glucose levels entry in data set [3] is “significantly reduced”. In addition, the HbA1C result in [4] is “significantly reduced”. Besides, the “reduction of SGLT2 mRNA / inhibition of the expression of SGLT2” value in the data set with dog SGLT2 mRNA (1 mg/kg/wk dose) is reported as “greater than 80%”. The Urinary glucose excretion entry in data set [5] is recorded as “increased”. Moreover, in [5], the glucose tolerance entry is recorded as “improved glucose tolerance”. Besides, the “Peak plasma glucose levels decreased, on average” value in data set [5] (standard glucose tolerance test, compared to saline controls) was “over 50%”.
As for “ISIS 391872: ApoB; GGTACATGGAAGTC 1-1-10-2 2′-(butylacetomido)-palmitamide Methyleneoxy BNA/Methyleneoxy BNA Unmodified cytosines in gap (antisense [PALM-G]*lG*dT*dA*dC*dA*dT*dG*dG*dA*dA*dG*lT*l[5mC])”, the “estimated ED50” value with ApoB mRNA is listed as 1.9 mg/kg. For the same compound, the LDL-C entry in [6] (Example 30) is given as “fell below the limit of detection”. Also, the Triglycerides result in data set [6] (at the 2.5 and 1.0 mg/kg doses (so in the source)) is “reduced”. Besides, the “total cholesterol, HDL-C and LDL-C” value in data set [6] (dose-dependent manner) is recorded as “markedly reduced”.

The values above are taken from patent US8188059B2, “Compounds and methods for modulating expression of GCGR” (Isis Pharmaceuticals, Inc., priority 2006, dated 2012).
